From US12077503B2, “Substituted cyclic amides and their use as herbicides” (FMC CORPORATION, priority 2015, dated 2024)

Key:
Format in all cases: in vivo
[1] = system: giant foxtail (Setaria faberi); assay: Test G Pre-Emergence Protocol; conditions: Setaria faberi, pre-emergence, 312 h, evaluated after 13 days; for pest or weed control at 15.625 g/ha: 15.625 g ai/ha; for pest or weed control at 15.625 g/ha / pest or weed control at 250 g/ha: read-out: Foxtail, Giant damage rating (100=total damage to plant; 0=no damage to plant); for pest or weed control at 62.5 g/ha: 62.5 g ai/ha, 100=total damage to plant, 0=no damage to plant, read-out: plant damage rating, Foxtail, Giant; for pest or weed control at 250 g/ha: 250 g ai/ha
Procedure, shortened: (§1)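 Pots of seeds in standard soil were grown for one day in a glasshouse (24/16 °C day/night, 14 h light, 65% humidity), then sprayed with compound in acetone/water 50:50 with 0.5% Tween 20 at 15.625, 62.5 or 250 g/ha. Damage was scored after 13 days on a 0 (none) to 100 (total) scale.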

[2] = system: barnyardgrass (Echinochloa crus-galli); assay: Test G Pre-Emergence Protocol; conditions: Echinochloa crus-galli, pre-emergence, 312 h, evaluated after 13 days; for pest or weed control at 15.625 g/ha: 15.625 g ai/ha, read-out: Barnyard grass damage rating (100=total damage to plant; 0=no damage to plant); for pest or weed control at 62.5 g/ha: 62.5 g ai/ha, 100=total damage to plant, 0=no damage to plant, read-out: plant damage rating, Barnyardgrass; for pest or weed control at 250 g/ha: 250 g ai/ha, read-out: Barnyardgrass damage rating (100=total damage to plant; 0=no damage to plant)
Procedure, shortened: as §1

[3] = system: velvetleaf (Abutilon theophrasti); assay: Test G Pre-Emergence Protocol; conditions: Abutilon theophrasti, pre-emergence, 312 h, evaluated after 13 days; for pest or weed control at 15.625 g/ha: 15.625 g ai/ha; for pest or weed control at 15.625 g/ha / pest or weed control at 250 g/ha: read-out: Velvetleaf damage rating (100=total damage to plant; 0=no damage to plant); for pest or weed control at 62.5 g/ha: 62.5 g ai/ha, 100=total damage to plant, 0=no damage to plant, read-out: plant damage rating, Velvetleaf; for pest or weed control at 250 g/ha: 250 g ai/ha
Procedure, shortened: as §1

[4] = system: ivy-leaved morning glory (Ipomoea hederacea); assay: Test G Pre-Emergence Protocol; conditions: Ipomoea, pre-emergence, 312 h, evaluated after 13 days; for pest or weed control at 15.625 g/ha: 15.625 g ai/ha, read-out: Morning-glory, Ivy-leaved damage rating (100=total damage to plant; 0=no damage to plant); for pest or weed control at 62.5 g/ha: 62.5 g ai/ha, 100=total damage to plant, 0=no damage to plant, read-out: plant damage rating, Morningglory, Ivy-leaved; for pest or weed control at 250 g/ha: 250 g ai/ha, read-out: Morningglory, Ivy-leaved damage rating (100=total damage to plant; 0=no damage to plant)
Procedure, shortened: as §1

[5] = system: corn (Zea mays); assay: Test G Pre-Emergence Protocol; conditions: Zea mays, pre-emergence, 312 h, evaluated after 13 days; for plant injury at 15.625 g/ha: 15.625 g ai/ha; for plant injury at 15.625 g/ha / plant injury at 250 g/ha: read-out: Corn damage rating (100=total damage to plant; 0=no damage to plant); for plant injury at 62.5 g/ha: 62.5 g ai/ha, 100=total damage to plant, 0=no damage to plant, read-out: plant damage rating, Corn; for plant injury at 250 g/ha: 250 g ai/ha
Procedure, shortened: as §1

[6] = system: redroot pigweed (Amaranthus retroflexus); assay: Test G Pre-Emergence Protocol; conditions: Amaranthus retroflexus, pre-emergence, 312 h, evaluated after 13 days; for pest or weed control at 15.625 g/ha: 15.625 g ai/ha; for pest or weed control at 15.625 g/ha / pest or weed control at 250 g/ha: read-out: Pigweed, Redroot damage rating (100=total damage to plant; 0=no damage to plant); for pest or weed control at 62.5 g/ha: 62.5 g ai/ha, 100=total damage to plant, 0=no damage to plant, read-out: plant damage rating, Pigweed, Redroot; for pest or weed control at 250 g/ha: 250 g ai/ha
Procedure, shortened: as §1

[7] = system: giant foxtail (Setaria faberi); assay: Test G Post-Emergence Protocol; conditions: Setaria faberi, post-emergence, 312 h; for pest or weed control at 15.625 g/ha: 15.625 g ai/ha, evaluated after 13 days (100=total damage to plant; 0=no damage to plant), read-out: Foxtail, Giant damage rating; for pest or weed control at 62.5 g/ha: 62.5 g ai/ha, read-out: Foxtail, Giant damage rating (100=total damage to plant; 0=no damage to plant); for pest or weed control at 62.5 g/ha / pest or weed control at 250 g/ha: evaluated after 13 days; for pest or weed control at 250 g/ha: 250 g ai/ha, read-out: damage to plant, Foxtail, Giant (100=total damage to plant; 0=no damage to plant)
Procedure, shortened: (§2)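 Pot-grown seedlings, 8 days old, raised in a glasshouse at 24/16 °C day/night with 14 h light and 65% humidity, were sprayed post-emergence with test compound in acetone/water (50:50) plus 0.5% Tween 20 at 15.625, 62.5 or 250 g/ha. Damage was scored visually 13 days later on a 0–100 scale (100 = total damage).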

[8] = system: barnyardgrass (Echinochloa crus-galli); assay: Test G Post-Emergence Protocol; conditions: Echinochloa crus-galli, post-emergence, 312 h; for pest or weed control at 15.625 g/ha: 15.625 g ai/ha, evaluated after 13 days (100=total damage to plant; 0=no damage to plant), read-out: Barnyardgrass damage rating; for pest or weed control at 62.5 g/ha: 62.5 g ai/ha, read-out: Barnyardgrass damage rating (100=total damage to plant; 0=no damage to plant); for pest or weed control at 62.5 g/ha / pest or weed control at 250 g/ha: evaluated after 13 days; for pest or weed control at 250 g/ha: 250 g ai/ha, read-out: damage to plant, Barnyardgrass (100=total damage to plant; 0=no damage to plant)
Procedure, shortened: as §2

[9] = system: velvetleaf (Abutilon theophrasti); assay: Test G Post-Emergence Protocol; conditions: Abutilon theophrasti, post-emergence, 312 h; for pest or weed control at 15.625 g/ha: 15.625 g ai/ha, evaluated after 13 days (100=total damage to plant; 0=no damage to plant), read-out: Velvetleaf damage rating; for pest or weed control at 62.5 g/ha: 62.5 g ai/ha, read-out: Velvetleaf damage rating (100=total damage to plant; 0=no damage to plant); for pest or weed control at 62.5 g/ha / pest or weed control at 250 g/ha: evaluated after 13 days; for pest or weed control at 250 g/ha: 250 g ai/ha, read-out: damage to plant, Velvetleaf (100=total damage to plant; 0=no damage to plant)
Procedure, shortened: as §2

[10] = system: ivy-leaved morning glory (Ipomoea hederacea); assay: Test G Post-Emergence Protocol; conditions: Ipomoea, post-emergence, 312 h; for pest or weed control at 15.625 g/ha: 15.625 g ai/ha, evaluated after 13 days (100=total damage to plant; 0=no damage to plant), read-out: Morningglory, Ivy-leaved damage rating; for pest or weed control at 62.5 g/ha: 62.5 g ai/ha, read-out: Morningglory, Ivy-leaved damage rating (100=total damage to plant; 0=no damage to plant); for pest or weed control at 62.5 g/ha / pest or weed control at 250 g/ha: evaluated after 13 days; for pest or weed control at 250 g/ha: 250 g ai/ha, read-out: damage to plant, Morningglory, Ivy-leaved (100=total damage to plant; 0=no damage to plant)
Procedure, shortened: as §2

[11] = system: corn (Zea mays); assay: Test G Post-Emergence Protocol; conditions: Zea mays, post-emergence, 312 h; for plant injury at 15.625 g/ha: 15.625 g ai/ha, evaluated after 13 days (100=total damage to plant; 0=no damage to plant), read-out: Corn damage rating; for plant injury at 62.5 g/ha: 62.5 g ai/ha, read-out: Corn damage rating (100=total damage to plant; 0=no damage to plant); for plant injury at 62.5 g/ha / plant injury at 250 g/ha: evaluated after 13 days; for plant injury at 250 g/ha: 250 g ai/ha, read-out: damage to plant, Corn (100=total damage to plant; 0=no damage to plant)
Procedure, shortened: as §2

[12] = system: redroot pigweed (Amaranthus retroflexus); assay: Test G Post-Emergence Protocol; conditions: Amaranthus retroflexus, post-emergence, 312 h; for pest or weed control at 15.625 g/ha: 15.625 g ai/ha, evaluated after 13 days (100=total damage to plant; 0=no damage to plant), read-out: Pigweed, Redroot damage rating; for pest or weed control at 62.5 g/ha: 62.5 g ai/ha, read-out: Pigweed, Redroot damage rating (100=total damage to plant; 0=no damage to plant); for pest or weed control at 62.5 g/ha / pest or weed control at 250 g/ha: evaluated after 13 days; for pest or weed control at 250 g/ha: 250 g ai/ha, read-out: damage to plant, Pigweed, Redroot (100=total damage to plant; 0=no damage to plant)
Procedure, shortened: as §2

| SMILES | pest or weed control at 15.625 g/ha [1] [%] | pest or weed control at 62.5 g/ha [1] [%] | pest or weed control at 250 g/ha [1] [%] | pest or weed control at 15.625 g/ha [2] [%] | pest or weed control at 62.5 g/ha [2] [%] | pest or weed control at 250 g/ha [2] [%] | pest or weed control at 15.625 g/ha [3] [%] | pest or weed control at 62.5 g/ha [3] [%] | pest or weed control at 250 g/ha [3] [%] | pest or weed control at 15.625 g/ha [4] [%] | pest or weed control at 62.5 g/ha [4] [%] | pest or weed control at 250 g/ha [4] [%] | plant injury at 15.625 g/ha [5] [%] | plant injury at 62.5 g/ha [5] [%] | plant injury at 250 g/ha [5] [%] | pest or weed control at 15.625 g/ha [6] [%] | pest or weed control at 62.5 g/ha [6] [%] | pest or weed control at 250 g/ha [6] [%] | pest or weed control at 15.625 g/ha [7] [%] | pest or weed control at 62.5 g/ha [7] [%] | also measured |
| --- | --- | --- | --- | --- | --- | --- | --- | --- | --- | --- | --- | --- | --- | --- | --- | --- | --- | --- | --- | --- | --- |
| Cc1cc(NC(=O)[C@@H]2C(=O)N(C)C[C@H]2c2ccc(C(F)(F)F)cc2)sn1 (racemic) [Compound 1560] | 0 | 0 | 10 | 0 | 0 | 10 | 0 | 0 | 0 | 0 | 0 | 0 | 0 | 0 | 10 | 0 | 0 | 0 | 0 | 0 | pest or weed control at 250 g/ha [7]: 20%; pest or weed control at 15.625 g/ha [8]: 0%; pest or weed control at 62.5 g/ha [8]: 0%; pest or weed control at 250 g/ha [8]: 20%; pest or weed control at 15.625 g/ha [9]: 0%; pest or weed control at 62.5 g/ha [9]: 0%; pest or weed control at 250 g/ha [9]: 10%; pest or weed control at 15.625 g/ha [10]: 0%; pest or weed control at 62.5 g/ha [10]: 0%; pest or weed control at 250 g/ha [10]: 0%; plant injury at 15.625 g/ha [11]: 0%; plant injury at 62.5 g/ha [11]: 0%; plant injury at 250 g/ha [11]: 0%; pest or weed control at 15.625 g/ha [12]: 0%; pest or weed control at 62.5 g/ha [12]: 0%; pest or weed control at 250 g/ha [12]: 20% |
| Cc1cc([C@@H]2CN(C)C(=O)[C@H]2C(=O)Nc2cccc(F)c2F)cc(Cl)n1 (racemic) [Compound 1481] | 40 | 60 | 90 | 20 | 40 | 80 | 0 | 0 | 10 | 0 | 0 | 10 | 30 | 30 | 60 | 0 | 0 | 20 | 40 | 60 | pest or weed control at 250 g/ha [7]: 70%; pest or weed control at 15.625 g/ha [8]: 30%; pest or weed control at 62.5 g/ha [8]: 60%; pest or weed control at 250 g/ha [8]: 70%; pest or weed control at 15.625 g/ha [9]: 0%; pest or weed control at 62.5 g/ha [9]: 0%; pest or weed control at 250 g/ha [9]: 10%; pest or weed control at 15.625 g/ha [10]: 0%; pest or weed control at 62.5 g/ha [10]: 10%; pest or weed control at 250 g/ha [10]: 80%; plant injury at 15.625 g/ha [11]: 20%; plant injury at 62.5 g/ha [11]: 20%; plant injury at 250 g/ha [11]: 60%; pest or weed control at 15.625 g/ha [12]: 0%; pest or weed control at 62.5 g/ha [12]: 0%; pest or weed control at 250 g/ha [12]: 20% |
